Reference: patent publication US20080292584A1 (priority 2005, published 2008)
“And” between values parts separate entries of the source, which are not always exact repeats. Equal values may be shown once. Read-outs that look alike come from different tables or passages of the source.

Key:
CYP2C8 = target: T1, CYP2C8 (Homo sapiens, UniProt P10632); test: Inhibition of CYP2C8 activity in pooled human liver microsomes (paclitaxel 5 μM to 6-hydroxy paclitaxel); type: in vitro ADME
T1 sequence (P10632 1-490): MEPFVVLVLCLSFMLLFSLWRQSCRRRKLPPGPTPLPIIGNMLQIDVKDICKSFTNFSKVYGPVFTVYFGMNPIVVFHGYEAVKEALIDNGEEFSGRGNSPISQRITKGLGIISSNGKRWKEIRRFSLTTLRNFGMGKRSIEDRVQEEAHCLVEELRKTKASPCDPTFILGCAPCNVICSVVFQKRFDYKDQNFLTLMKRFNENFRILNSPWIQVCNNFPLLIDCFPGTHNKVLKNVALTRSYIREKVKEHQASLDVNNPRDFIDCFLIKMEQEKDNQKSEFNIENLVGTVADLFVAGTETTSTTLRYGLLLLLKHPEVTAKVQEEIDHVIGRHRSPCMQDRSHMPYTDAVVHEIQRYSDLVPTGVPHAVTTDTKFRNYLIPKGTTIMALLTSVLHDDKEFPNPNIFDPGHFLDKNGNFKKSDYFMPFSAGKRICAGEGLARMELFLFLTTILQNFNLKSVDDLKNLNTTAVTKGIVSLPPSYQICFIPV
Method: (§1) All other incubations were for 30 minutes.
(§2) Four replicates were performed.
(§3) Two replicates were performed.

CYP2C9 [1] = target: T2, CYP2C9 (Homo sapiens, UniProt P11712); test: Inhibition of CYP2C9 activity in pooled human liver microsomes (tolbutamide 150 μM to 4′-methylhydroxytolbutamide); type: in vitro ADME; set-up: host or cells: cryopreserved primary human hepatocytes from three donors
T2 sequence (P11712 whole entry): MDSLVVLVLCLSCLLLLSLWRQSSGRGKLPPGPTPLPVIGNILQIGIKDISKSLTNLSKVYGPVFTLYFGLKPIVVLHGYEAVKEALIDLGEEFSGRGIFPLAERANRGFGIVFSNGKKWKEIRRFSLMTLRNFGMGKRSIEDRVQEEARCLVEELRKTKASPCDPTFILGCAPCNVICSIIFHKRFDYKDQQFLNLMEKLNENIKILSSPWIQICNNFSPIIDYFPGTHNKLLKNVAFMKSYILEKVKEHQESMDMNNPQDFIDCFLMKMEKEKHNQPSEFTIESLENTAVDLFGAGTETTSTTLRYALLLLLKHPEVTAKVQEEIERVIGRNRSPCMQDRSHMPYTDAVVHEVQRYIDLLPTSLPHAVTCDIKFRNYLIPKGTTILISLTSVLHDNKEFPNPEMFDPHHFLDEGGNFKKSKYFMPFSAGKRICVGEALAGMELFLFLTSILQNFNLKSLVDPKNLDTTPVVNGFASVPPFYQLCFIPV
Method: as §1, §2, §3

CYP2D6 = CYP2D6 (Homo sapiens, UniProt P10635); test: Induction/inhibition of CYP2D6 activity in cryopreserved human hepatocytes (dextromethorphan)
Chain of CYP2D6 (P10635 whole entry): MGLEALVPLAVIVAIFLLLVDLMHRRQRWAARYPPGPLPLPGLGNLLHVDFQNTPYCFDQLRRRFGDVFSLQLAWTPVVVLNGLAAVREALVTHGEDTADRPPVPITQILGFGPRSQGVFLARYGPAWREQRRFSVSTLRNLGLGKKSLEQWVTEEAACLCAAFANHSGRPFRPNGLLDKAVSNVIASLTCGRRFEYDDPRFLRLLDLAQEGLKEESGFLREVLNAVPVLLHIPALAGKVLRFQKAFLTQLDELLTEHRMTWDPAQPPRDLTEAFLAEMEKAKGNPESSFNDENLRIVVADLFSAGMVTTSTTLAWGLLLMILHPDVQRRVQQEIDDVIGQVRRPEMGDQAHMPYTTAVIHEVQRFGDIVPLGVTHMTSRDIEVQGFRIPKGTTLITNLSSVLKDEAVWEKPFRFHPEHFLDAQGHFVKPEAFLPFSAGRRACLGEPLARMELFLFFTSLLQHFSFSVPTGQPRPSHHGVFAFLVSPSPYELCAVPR
From the text: (§4) Hepatocytes from three human donors were obtained from a cryopreserved hepatocyte bank (In Vitro Technologies, Inc., USA). After thawing, viable hepatocytes were transferred to collagen-coated 48-well plates for attachment in plating medium (DMEM stock (Dulbecco's modified Eagle's medium, supplemented with bovine serum albumin, fructose, N-(2-hydroxyethyl)piperazine-N′-(2-ethanesulfonate) (HEPES), and sodium bicarbonate), supplemented with antibiotics, bovine serum, hydrocortisone, insulin and minimum essential medium (MEM) nonessential amino acids). After attachment to the collagen matrix, plating medium was replaced with sandwich medium (plating medium supplemented with VITROGEN) and incubated until use.
(§5) The supplemented KHB was replaced with 150 μL supplemented KHB containing the appropriate isoform-selective substrate and incubated for 4 hrs prior to termination by adding 150 μL ice-cold methanol, except for the CYP2C8 incubations which were terminated by adding 150 μL acetonitrile.
(§6) All substrates were dissolved in acetonitrile.
(§7) Replicate trials and controls were performed. […] Additionally, reference control samples were included to evaluate inducibility of CYP2B6, CYP2C9, and CYP2C19 in the test system.
(§8) Mean specific activity values with associated p-values≦0.05 were deemed to be statistically significant.

CYP2C9 [2] = target: T2, CYP2C9; conditions: 1 mg/mL HLM, 60 min, with sulfaphenazole; for % Turnover / % inhibition of turnover / Conc.: single replicates
Method: (§9) Human liver microsomes pooled from 15 individuals (male and female) (Pool HMMC-PL020; CellzDirect, Inc., In Vitro Products and Services Division) were used in some experiments of this study.
(§10) % Turnover=100−{[TA(final)]/[mean of TA(0 min)]}×100,
(§11) % Inhibition of Turnover=100{1−([TA(0 min)]−[TA(final-inhibitor)])/([TA(0 min)]−[TA(final-no inhibitor)])}.
(§12) The inhibitors or vehicle control were incubated with the pooled human liver microsomes (1 mg/mL) and NADPH (1 mM) in 0.1 M phosphate buffer, pH 7.4. […] Incubations were conducted in triplicate and terminated by addition of organic solvent. Samples were extracted and analyzed by LC-MS/MS as described above.

CYP2E1 = CYP2E1 (Homo sapiens, UniProt P05181); test: Induction/inhibition of CYP2E1 activity in cryopreserved human hepatocytes (chlorzoxazone)
Chain of CYP2E1 (P05181 whole entry): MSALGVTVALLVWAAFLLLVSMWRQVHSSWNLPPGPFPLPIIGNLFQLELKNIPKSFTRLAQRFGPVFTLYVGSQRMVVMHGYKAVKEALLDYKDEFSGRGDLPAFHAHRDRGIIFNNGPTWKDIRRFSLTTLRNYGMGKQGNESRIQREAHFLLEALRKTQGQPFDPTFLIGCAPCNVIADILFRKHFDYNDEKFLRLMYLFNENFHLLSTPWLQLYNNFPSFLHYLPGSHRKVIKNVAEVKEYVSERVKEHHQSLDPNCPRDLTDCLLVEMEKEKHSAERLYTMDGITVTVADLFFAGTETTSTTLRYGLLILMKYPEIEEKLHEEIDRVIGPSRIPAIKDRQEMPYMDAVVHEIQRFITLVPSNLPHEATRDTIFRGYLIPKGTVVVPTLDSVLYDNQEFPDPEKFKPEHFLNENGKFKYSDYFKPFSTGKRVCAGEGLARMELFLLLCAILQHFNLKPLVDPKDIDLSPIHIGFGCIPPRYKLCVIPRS
From the text: as §4, §5, §6, §7, §8

CYP1A2 = test: Induction/inhibition of CYP1A2 activity in cryopreserved human hepatocytes after 48 h exposure (phenacetin)
From the text: as §4, §5, §6, §7, §8

CYP2C19 = CYP2C19 (Homo sapiens, UniProt P33261); test: Chemical inhibition of metaxalone turnover in human liver microsomes, CYP2C19 inhibitor ticlopidine; conditions: 1 mg/mL HLM, 60 min, with ticlopidine; for % Turnover / % inhibition of turnover / Conc.: single replicates
Chain of CYP2C19 (P33261 whole entry): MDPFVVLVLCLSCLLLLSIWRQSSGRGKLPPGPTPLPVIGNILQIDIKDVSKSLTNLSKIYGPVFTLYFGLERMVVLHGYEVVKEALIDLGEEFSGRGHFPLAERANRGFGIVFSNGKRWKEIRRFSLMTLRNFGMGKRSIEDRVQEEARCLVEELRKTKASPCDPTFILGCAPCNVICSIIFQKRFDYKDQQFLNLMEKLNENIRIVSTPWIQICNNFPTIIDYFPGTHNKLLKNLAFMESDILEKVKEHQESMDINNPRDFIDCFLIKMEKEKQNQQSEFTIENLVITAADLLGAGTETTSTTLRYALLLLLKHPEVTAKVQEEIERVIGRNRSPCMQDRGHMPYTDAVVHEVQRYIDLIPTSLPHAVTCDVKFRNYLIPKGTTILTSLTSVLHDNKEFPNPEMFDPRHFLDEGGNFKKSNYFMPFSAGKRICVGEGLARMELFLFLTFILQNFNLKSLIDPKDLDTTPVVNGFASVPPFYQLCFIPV
Method: as §9, §10, §11, §12

[3] = human, hepatocytes, 48 h, 40 μM

## Cc1cc(C)cc(OCC2CNC(=O)O2)c1 (centres unmarked) [metaxalone, 5-[(3,5-dimethylphenoxy)methyl]-2-oxazolidinone]
CYP2C8; 0.3-100 μM metaxalone
  inhibition of CYP activity at a statistically significant level: no tested concentration of metaxalone inhibited activity
CYP2C8; CYP isozyme 2C8, summary of studies
  Inhibitor: 0
CYP2C8; metaxalone 0.3 μM
  Percent of VC: 92.7%
  Specific Activity Individual: 19.3 pmol/min/mg protein and 15.2 pmol/min/mg protein and 16.1 pmol/min/mg protein
  Specific Activity Mean ± SD: 16.8 ± 2.18 pmol/min/mg protein
CYP2C8; metaxalone 1 μM
  Percent of VC: 103%
  Specific Activity Individual: 18.6 pmol/min/mg protein and 18.3 pmol/min/mg protein and 19.1 pmol/min/mg protein
  Specific Activity Mean ± SD: 18.7 ± 0.406 pmol/min/mg protein
CYP2C8; metaxalone 3 μM
  Percent of VC: 109%
  Specific Activity Individual: 20.0 pmol/min/mg protein and 19.9 pmol/min/mg protein and 19.6 pmol/min/mg protein
  Specific Activity Mean ± SD: 19.9 ± 0.232 pmol/min/mg protein
CYP2C8; metaxalone 30 μM
  Percent of VC: 101%
  Specific Activity Individual: 19.9 pmol/min/mg protein and 18.3 pmol/min/mg protein and 16.9 pmol/min/mg protein
  Specific Activity Mean ± SD: 18.4 ± 1.52 pmol/min/mg protein
CYP2C8; metaxalone 100 μM
  Percent of VC: 97.8%
  Specific Activity Individual: 17.6 pmol/min/mg protein and 20.6 pmol/min/mg protein and 15.1 pmol/min/mg protein
  Specific Activity Mean ± SD: 17.8 ± 2.76 pmol/min/mg protein
CYP2C9 [1]; 0.3-100 μM metaxalone
  inhibition of CYP activity at a statistically significant level: no tested concentration of metaxalone inhibited activity
CYP2C9 [1]; CYP isozyme 2C9, summary of studies
  Inhibitor: 0
CYP2C9 [1]; metaxalone 0.3 μM
  Percent of VC: 81.4%
  Specific Activity Individual: 36.3 pmol/min/mg protein and 35.8 pmol/min/mg protein and 36.2 pmol/min/mg protein
  Specific Activity Mean ± SD: 36.1 ± 0.283 pmol/min/mg protein
CYP2C9 [1]; metaxalone 1 μM
  Percent of VC: 81.6%
  Specific Activity Individual: 40.3 pmol/min/mg protein and 37.5 pmol/min/mg protein and 30.6 pmol/min/mg protein
  Specific Activity Mean ± SD: 36.2 ± 4.98 pmol/min/mg protein
CYP2C9 [1]; metaxalone 3 μM
  Percent of VC: 81.2%
  Specific Activity Individual: 34.8 pmol/min/mg protein and 34.0 pmol/min/mg protein and 39.1 pmol/min/mg protein
  Specific Activity Mean ± SD: 36.0 ± 2.75 pmol/min/mg protein
CYP2C9 [1]; metaxalone 30 μM
  Percent of VC: 91.0%
  Specific Activity Individual: 39.9 pmol/min/mg protein and 38.3 pmol/min/mg protein and 42.8 pmol/min/mg protein
  Specific Activity Mean ± SD: 40.3 ± 2.24 pmol/min/mg protein
CYP2C9 [1]; metaxalone 100 μM
  Percent of VC: 87.4%
  Specific Activity Individual: 43.4 pmol/min/mg protein and 36.6 pmol/min/mg protein and 36.3 pmol/min/mg protein
  Specific Activity Mean ± SD: 38.8 ± 4.00 pmol/min/mg protein
CYP2D6
  Inducer/Inhibitor: −
CYP2D6; Donor 3, Metaxalone 0.4 μM
  Percent of VC: 98.8%
CYP2D6; Donor 3, Metaxalone 4 μM
  Percent of VC: 89.8%
  Specific Activity Mean ± SD: 0.533 ± 0.0146 pmol/min/million cells
CYP2D6; hepatocytes
  CYP2D6 activity: below the lower limit of quantitation
CYP2D6; human, 48 h, 4 μM
  Percent of VC: 100%
CYP2D6; [3]
  effect on CYP2D6 activity: significantly reduced CYP2D6 activity
CYP2C9 [2]; 0.75 μM metaxalone
  % Turnover Mean: 5.53%
  % inhibition of turnover Mean: 81.4%
  Mean Conc.: 0.729 µM
  % Turnover: 5.4% and 5.6% (2×)
  % inhibition of turnover: 81.9% and 81.3%
  Conc.: 0.730 µM
CYP2C9 [2]; 7.5 μM metaxalone
  % Turnover Mean: 11.6%
  % inhibition of turnover Mean: 52.8%
  Mean Conc.: 7.52 µM
  % Turnover: 10.2% and 12.6%
  % inhibition of turnover: 51.0% and 58.5% and 48.8%
  Conc.: 7.49 µM and 7.65 µM and 7.44 µM
CYP2E1; CYP isozyme 2E1, summary of studies
  Inducer/Inhibitor: 0
CYP2E1; Donor 1, Metaxalone 0.4 μM
  Specific Activity Individual: 2.58 pmol/min/million cells and 2.66 pmol/min/million cells and 2.19 pmol/min/million cells
  Specific Activity Mean ± SD: 2.47 ± 0.249 pmol/min/million cells
CYP2E1; Donor 1, Metaxalone 4 μM
  Percent of VC: 104%
  Specific Activity Individual: 2.57 pmol/min/million cells and 2.47 pmol/min/million cells and 2.87 pmol/min/million cells
  Specific Activity Mean ± SD: 2.64 ± 0.210 pmol/min/million cells
CYP2E1; Donor 1, Metaxalone 40 μM
  Percent of VC: 104%
  Specific Activity Individual: 2.54 pmol/min/million cells and 2.66 pmol/min/million cells and 2.69 pmol/min/million cells
  Specific Activity Mean ± SD: 2.63 ± 0.0782 pmol/min/million cells
CYP2E1; Donor 2, Metaxalone 0.4 μM
  Percent of VC: 104%
  Specific Activity Individual: 0.631 pmol/min/million cells and 0.683 pmol/min/million cells and 0.765 pmol/min/million cells
  Specific Activity Mean ± SD: 0.693 ± 0.0673 pmol/min/million cells
CYP2E1; Donor 2, Metaxalone 4 μM
  Percent of VC: 89.6%
  Specific Activity Individual: 0.564 pmol/min/million cells and 0.605 pmol/min/million cells and 0.626 pmol/min/million cells
  Specific Activity Mean ± SD: 0.598 ± 0.0317 pmol/min/million cells
CYP2E1; Donor 2, Metaxalone 40 μM
  Percent of VC: 99.6%
  Specific Activity Individual: 0.558 pmol/min/million cells and 0.633 pmol/min/million cells and 0.804 pmol/min/million cells
  Specific Activity Mean ± SD: 0.665 ± 0.126 pmol/min/million cells
CYP2E1; Donor 3, Metaxalone 0.4 μM
  Percent of VC: 90.7%
  Specific Activity Individual: 0.449 pmol/min/million cells and 0.474 pmol/min/million cells and 0.462 pmol/min/million cells
  Specific Activity Mean ± SD: 0.462 ± 0.0125 pmol/min/million cells
CYP2E1; Donor 3, Metaxalone 4 μM
  Percent of VC: 87.7%
  Specific Activity Individual: 0.468 pmol/min/million cells and 0.464 pmol/min/million cells and 0.406 pmol/min/million cells
  Specific Activity Mean ± SD: 0.446 ± 0.0348 pmol/min/million cells
CYP2E1; Donor 3, Metaxalone 40 μM
  Percent of VC: 93.9%
  Specific Activity Individual: 0.470 pmol/min/million cells and 0.495 pmol/min/million cells and 0.469 pmol/min/million cells
  Specific Activity Mean ± SD: 0.478 ± 0.0146 pmol/min/million cells
CYP2E1; any of the tested concentrations (0.4, 4.0, 40 μM)
  effects on CYP activity: no significant effects
CYP1A2
  Inducer/Inhibitor: +
CYP1A2; Donor 2, Metaxalone 40 μM
  Percent of VC: 197%
CYP1A2; human, 4 h, 40 μM
  Acetaminophen formation Adjusted Mean ± SD: 0.0589 ± 0.00795 µM
CYP1A2; human, 48 h, 4 μM
  Acetaminophen formation Adjusted Mean ± SD: 0.0443 ± 0.000214 µM
CYP1A2; [3]
  effect on CYP1A2 activity: induced CYP1A2 activity
CYP2C19; 0.75 μM metaxalone
  % Turnover Mean: 8.16%
  % inhibition of turnover Mean: 72.6%
  Mean Conc.: 0.709 µM
  % Turnover: 9.6% and 7.5% and 7.4%
  % inhibition of turnover: 67.9% and 74.7% and 75.2%
  Conc.: 0.698 µM and 0.714 µM and 0.715 µM
CYP2C19; 7.5 μM metaxalone
  % Turnover Mean: 1.71%
  % inhibition of turnover Mean: 93.1%
  Mean Conc.: 8.37 µM
  % Turnover: 5.8% and 11.0% and −11.6%
  % inhibition of turnover: 76.5% and 55.5% and 147%
  Conc.: 8.02 µM and 7.58 µM and 9.50 µM
